Measurements: US20110301142A1, “ANTAGONISTS OF LYSOPHOSPHATIDIC ACID RECEPTORS” (priority 2008, published 2011)

Columns and labels:
human LPA1 = biological target: T1, human LPA1 (Homo sapiens, UniProt Q92633); assay: LPA1 calcium flux assay (HLPA1 Ca Flux); assay type: cell-based; details: Human LPA1 expressing CHO cells, stimulated with 10 nM LPA
T1 construct: the full-length cDNA for human LPA1 was obtained by PCR of the reverse transcription reaction; expressed in transfected cells
Method in brief: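 Compounds were fitted for IC50 from inhibition of the intracellular calcium rise evoked by 10 nM LPA. Test system: dye-loaded CHO cells stably transfected with human LPA1, serum-free overnight, with 30 min compound pretreatment at room temperature before stimulation.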

[1] = test system: A2058 human melanoma cells; assay: LPA1 chemotaxis assay; assay type: cell-based; details: 100 nM LPA, read-out: IC50, inhibition of LPA-driven chemotaxis
Method: Chemotaxis of the A2058 human melanoma cells was measured using the Neuroprobe ChemoTx® System plates (8 μm pore size, 5.7 mm diameter sites). The filter sites were coated with 0.001% fibronectin (Sigma) in 20 mM Hepes, pH 7.4 and allowed to dry. A2058 cells were serum-starved for 24 hours, then harvested with Cell Stripper and resuspended in DMEM containing 0.1% fatty-acid-free bovine serum albumin (BSA) to a concentration of 1×10^6/ml. Cells were mixed with an equal volume of test compound (2×) in DMEM containing 0.1% fatty-acid-free BSA and incubated at 37° C. for 15 minutes. LPA (100 nM in DMEM containing 0.1% fatty-acid-free BSA) or vehicle was added to each well of the lower chamber and 50 μl of the cell suspension/test compound mix was applied to the upper portion of the ChemoTx plate. Plates were incubated at 37° C. for three hours and then the cells removed from the upper portion by rinsing with PBS and scraping. The filter was dried then stained with HEMA 3 Staining System (Fisher Scientific). The absorbance of the filter was read at 590 nm and IC50s were determined using Symyx Assay Explorer.

Female C57BL/6 mice [2] = assay: Mouse carbon tetrachloride (CCl4)-induced liver fibrosis model; assay type: in vivo; details: for collagen deposition in the liver as compared to the untreated group: CCl4-induced liver fibrosis
Method: Female C57BL/6 mice (Harlan, 20-25 g) housed 4/cage are given free access to food and water and allowed to acclimate for at least 7 days prior to test initiation. After the habituation phase, mice receive CCl4 (0.5-1.0 ml/kg body weight) diluted in corn oil vehicle (100 μL volume) via i.p. injection twice a week for 4-6 weeks. (Higazi, A. A. et al., Clin Exp Immunol. 2008 April; 152(1):163-73. Epub 2008 Feb. 14.). Control mice receive an equivalent volume of corn oil vehicle only. Test compound or vehicle is delivered po, ip or sc daily. At the end of the study (4-6 weeks after first i.p. injection of CCl4), mice are sacrificed using inhaled isoflurane and blood is drawn via cardiac puncture for subsequent analysis of ALT/AST levels. The liver is harvested, and one half of the liver is frozen at −80° C. and the other half is fixed in 10% neutral buffered formalin for histological assessment of liver fibrosis using light microscopy (10× magnification). Liver tissue homogenates are analyzed for collagen levels using Sircol (Biocolor Ltd, UK). Fixed Liver tissue is stained using hematoxylin and eosin (H&E) and trichrome and liver fibrosis is determined by quantitative, computer-assisted densitometry of collagen in liver tissue sections using light microscopy. Plasma and liver tissue lysates are also analyzed for concentrations of inflammatory, pro-fibrotic and tissue injury biomarkers including transforming growth factor β1, hyaluronic acid, tissue inhibitor of metalloproteinase-1, matrix matelloproteinase-7, connective tissue growth factor and lactate dehydrogenase activity, using commercially available ELISA. The resulting data are plotted using Graphpad prism and statistical differences between groups determined.

Female C57BL/6 mice [3] = assay: Mouse unilateral ureteral obstruction kidney fibrosis model; assay type: in vivo
Method: Female C57BL/6 mice (Harlan, 20-25 g) housed 4/cage will be given free access to food and water and allowed to acclimate for at least 7 days prior to test initiation. After the habituation phase, mice undergo unilateral ureteral obstruction (UUO) surgery or sham to left kidney. Briefly, a longitudinal, upper left incision is performed to expose the left kidney. The renal artery is located and 6/0 silk thread is passed between the artery and the ureter. The thread is looped around the ureter and knotted 3 times insuring full ligation of ureter. The kidney is returned to abdomen, the abdominal muscle is sutured and the skin is stapled closed. Mice are returned to their cages and monitored daily for the duration of the experiment. Test compound or vehicle is delivered po, ip or sc daily. The route and frequency of dosing is based on previously determined pharmacokinetic properties. All animals are sacrificed using inhaled isoflurane 4, 8 or 14 days after UUO surgery. […] Kidney tissue homogenates are analyzed for collagen levels using Sircol (Biocolor Ltd, UK). Fixed kidney tissue is also stained using hematoxylin and eosin (H&E) and trichrome and kidney fibrosis is determined by quantitative, computer-assisted densitometry of collagen in […] tissue sections using light microscopy. […] The resulting data are plotted using Graphpad prism and statistical differences between groups determined.

T1 sequence (Q92633 whole entry): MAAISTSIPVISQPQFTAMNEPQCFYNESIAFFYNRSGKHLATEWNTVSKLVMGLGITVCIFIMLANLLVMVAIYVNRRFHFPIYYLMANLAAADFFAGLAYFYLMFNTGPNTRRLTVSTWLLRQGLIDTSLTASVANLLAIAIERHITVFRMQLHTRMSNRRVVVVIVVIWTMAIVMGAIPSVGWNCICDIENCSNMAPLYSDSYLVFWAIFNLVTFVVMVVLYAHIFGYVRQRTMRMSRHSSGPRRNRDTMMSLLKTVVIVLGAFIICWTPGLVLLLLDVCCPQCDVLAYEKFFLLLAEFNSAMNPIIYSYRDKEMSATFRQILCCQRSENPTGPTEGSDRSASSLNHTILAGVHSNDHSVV

IC50 (human LPA1) [µM]	IC50 [1] [µM]	Compound	effect on collagen deposition compared to pirfenidone (Female C57BL/6 mice [2]; 30 mg/kg, po, qd)	collagen deposition in the liver as compared to the untreated group (Female C57BL/6 mice [2])	reduction of kidney fibrosis as compared to the untreated group (Female C57BL/6 mice [3])
< 0.3	< 0.3	Cc1noc(-c2ccc(-c3ccc(CC(=O)O)cc3)cc2)c1NC(=O)O[C@H](C)c1ccccc1Cl [Compound 1-88, (4′-{4-[(R)-1-(2-Chloro-phenyl)-ethoxycarbonylamino]-3-methyl-isoxazol-5-yl}-biphenyl-4-yl)-acetic acid]	same effect on collagen deposition as pirfenidone	significantly reduced	at least 20%
< 0.3	< 0.3	Cc1noc(-c2ccc(-c3ccc(CC(=O)O)cc3)cc2)c1NC(=O)O[C@H](C)c1ccccc1 [Compound 1-115]	–	significantly reduced	55%
